Data published in patent publication US20250352539A1, “COMBINATION THERAPY FOR TREATING CANCER” (AstraZeneca AB, priority 2022, published 2025).

Legend:
Type in all cases: cell-based
NCI-H1573 = assay: 10-day Cell Titre Glo combination screen; conditions: Homo sapiens, NCI-H1573, 240 h, NCI-H1573 lung; monotherapy; read-out: mono AC50
Description: (§1) The Highest Single Agent (HSA) model is used to determine a combination's synergy score (and is based simply on the intuition that if a combination's effect exceeds the effect level of each of its constituents, there must be some combination interaction). Mathematically, the HSA model describes simple superposition of the single agent curves:
(§2) where CX,Y are the concentrations of the X and Y compound, and IX and IY are inhibitions of the single agents at CX,Y. It is also useful to calculate a volume score (HSA Volume) between the data and the HSA surface to characterise the overall strength of combination effects. Empirically derived combination matrices are compared to their respective HSA additivity models constructed from experimentally collected single agent dose response curves. Summation of this excess additivity across the dose response matrix is referred to HSA Volume.
(§3) Potency shifting can also be scored using combination index (CI). For a chosen iso-effect level (ICut), CI is calculated as: […]
(§4) where (CX/ECX) for a particular data point is the ratio of the X compound's measured concentration to its effective concentration at the chosen effect level. The CI is a rough estimate of how much drug was needed in combination relative to the single agent doses required to achieve the chosen effect level. CI values in the range of 0.5-0.7 are typical for in vitro measurements of current clinical combinations. The CI error (σCI) is calculated using standard error propagation through the CI calculation based on the isobologram errors.
(§5) This combination screen was a 10-day assay using Cell Titre Glo as the readout for viability.
(§6) The assay was performed in 384 well plates, with 1 cell line and 4 drug-drug combinations per plate dosed in a 6×6 matrix. A day zero reading was measured to determine growth inhibition. GenedataScreener was used to input the raw values for every well, and the software was programmed to normalise the values to the day zero and DMSO control values.
(§7) The CellTiter-Glo® Luminescent Cell Viability Assay is a homogeneous method to determine the number of viable cells in culture based on quantitation of the ATP present, which signals the presence of metabolically active cells. It relies on the properties of a proprietary thermostable luciferase (Ultra-Glo™ Recombinant Luciferase), which generates a stable “glow-type” luminescent signal and improves performance across a wide range of assay conditions.
(§8) The following information was reported: Synergy scores (HSA); combination index values; AC50 (half-maximal activity concentration) monotherapy values.

NCI-H322 = assay: 10-day Cell Titre Glo combination screen; conditions: NCI-H322, NCI-H322 lung; monotherapy; read-out: mono AC50
Description: as §1, §2, §3, §4, §5, §6, §7, §8

NCI-H2009 = assay: 10-day Cell Titre Glo combination screen; conditions: Homo sapiens; NCI-H2009 lung; monotherapy; read-out: mono AC50
Description: as §1, §2, §3, §4, §5, §6, §7, §8

PC-9 = assay: 10-day Cell Titre Glo combination screen; conditions: Homo sapiens; PC-9 lung; monotherapy; read-out: mono AC50
Description: as §1, §2, §3, §4, §5, §6, §7, §8

NCI-H1650 = assay: 10-day Cell Titre Glo combination screen; conditions: Homo sapiens, NCI-H1650, NCI-H1650 lung; monotherapy; read-out: mono AC50
Description: as §1, §2, §3, §4, §5, §6, §7, §8

DMS53 = assay: 10-day Cell Titre Glo combination screen; conditions: Homo sapiens, DMS-53; DMS53 lung; monotherapy; read-out: mono AC50
Description: as §1, §2, §3, §4, §5, §6, §7, §8

[1] = test system: SUM149PT 53BP1 WT (CNTR) cells; assay: Clonogenic proliferation assay (14 days, SRB); conditions: Homo sapiens; SUM149PT 53BP1 WT (CNTR); monotherapy; read-out: IC50, clonogenic growth
Description: (§9) Parental BRCA1 mutant SUM149PT breast cancer cell line (Elstrodt 2006) were obtained from AstraZeneca Cell Bank at Alderley Park, Macclesfield. Cells were routinely grown in Ham's F12 media containing 5% foetal calf serum, 1% glutamine (2 mM), 500 ng/ml hydrocortisone and 5% insulin. SUM149PT 53BP1 WT (CNTR) and 53BP1 null (KO) cell pools were generated by CRISPR-Cas9 technology. Short guide (sg) RNA targeting TP53BP1 on exon 10 (GAGTAGATCGGAAAGCATC) and a non-targeting CNTR guide (GAGTAGATCGGAAAGCATC) were designed and cloned into a lentiviral vector containing a mClover3 cassette for green fluorescence signal and hygromycin cassette for selection (pKLV2-U6gRNA (Bbsl)-EF1a-mClover3-T2A-HygR-W). Lentiviruses were generated from both KO and CNTR (sg) RNA and Cas9 (pKLVEF1a-Cas9Bsd-W) plasmids and parental cells were transduced first with Cas9 lentiviruses followed by blasticidin selection and then with KO and CNTR lentiviruses followed by hygromycin selection. Loss of 53BP1 was verified by analysing 53BP1 protein expression from whole cell lysates by western blotting (Novus, NB100-304, 1:1000 dilution).
(§10) Cells were seeded onto 6-well plates, three replicates per cell line, and 24 hours later the cells were dosed with AZD6738/AZD5305. For monotherapies the cells were dosed with a 6-point concentration response of AZD6738 (0 to 0.64 μM) or AZD5305 (0 to 1 μM). For combination treatments single dose of AZD5305 (10 nM) was used with a 5-point concentration response of AZD6738 (0 to 0.64 μM) for 53BP1 KO cells. Cells were grown for 14 days for colony formation without media changes. Cells were fixed with 10% TCA (Tricloroacetic acid). 14 days after dosing any formed colonies were stained with 0.057% SRB (sulforhodamine B acid), imaged with GelCount™ (Oxford OPTRONIX) at 600 dpi resolution and the stained colony growth intensity was measured using plate reader with OD @[…]. Dose response curves were generated and IC50 concentrations were calculated using GraphPad PRISM software.

[2] = test system: SUM149PT 53BP1 KO cell pools; assay: Clonogenic proliferation assay (14 days, SRB)
Description: as §9, §10

NCI-H1666 = assay: 10-day Cell Titre Glo combination screen; conditions: Homo sapiens; NCI-H1666 lung; monotherapy; read-out: mono AC50
Description: as §1, §2, §3, §4, §5, §6, §7, §8

DU4475 = assay: 10-day Cell Titre Glo combination screen; conditions: Homo sapiens, DU-4475; DU4475 breast; monotherapy; read-out: mono AC50
Description: as §1, §2, §3, §4, §5, §6, §7, §8

HCC1395 = assay: 10-day Cell Titre Glo combination screen; conditions: Homo sapiens; HCC1395 breast; monotherapy; read-out: mono AC50
Description: as §1, §2, §3, §4, §5, §6, §7, §8

MCF7 T52 = assay: 10-day Cell Titre Glo combination screen; conditions: Homo sapiens; MCF7 T52 breast; monotherapy; read-out: mono AC50
Description: as §1, §2, §3, §4, §5, §6, §7, §8

NCI-H1792 = assay: 10-day Cell Titre Glo combination screen; conditions: Homo sapiens; NCI-H1792 lung; monotherapy; read-out: mono AC50
Description: as §1, §2, §3, §4, §5, §6, §7, §8

NCI-H23 = assay: 10-day Cell Titre Glo combination screen; conditions: Homo sapiens; NCI-H23 lung; monotherapy; read-out: mono AC50
Description: as §1, §2, §3, §4, §5, §6, §7, §8

HCC1569 = assay: 10-day Cell Titre Glo combination screen; conditions: Homo sapiens; HCC1569 breast; monotherapy; read-out: mono AC50
Description: as §1, §2, §3, §4, §5, §6, §7, §8

HCC15 = assay: 10-day Cell Titre Glo combination screen; conditions: HCC15 lung; monotherapy; read-out: mono AC50
Description: as §1, §2, §3, §4, §5, §6, §7, §8

Structure (SMILES) | AC50 (NCI-H1573) [nM] | AC50 (NCI-H322) [nM] | AC50 (NCI-H2009) [nM] | AC50 (PC-9) [nM] | AC50 (NCI-H1650) [nM] | AC50 (DMS53) [nM] | IC50 [1] [nM] | growth inhibition as monotherapy ([2]; 10 nM, cell pool not given) | sensitivity, clonogenic growth ([2]; SUM149PT 53BP1 KO, monotherapy) | AC50 (NCI-H1666) [nM] | AC50 (DU4475) [nM] | AC50 (HCC1395) [nM] | AC50 (MCF7 T52) [nM] | AC50 (NCI-H1792) [nM] | AC50 (NCI-H23) [nM] | AC50 (HCC1569) [nM] | AC50 (HCC15) [nM]
CCc1cc2ccc(CN3CCN(c4ncc(C)n4C)CC3)cc2[nH]c1=O [AZ14114554, 7-((4-(1,5-dimethyl-1H-imidazol-2-yl)piperazin-1-yl)methyl)-3-ethylquinolin-2 (1H)-one] | 19.6 | 1.23 | 105 | 97100 | 63.2 | 62.2 | – | – | – | – | – | – | – | – | – | – | –
CCc1cc2ncc(CN3CCN(c4ccc(C(=O)NC)nc4)CC3)cc2[nH]c1=O [AZD5305, 5-{4-[(7-ethyl-6-oxo-5,6-dihydro-1,5-naphthyridin-3-yl)methyl]piperazin-1-yl}-N-methylpyridine-2-carboxamide] | 47.7 | – | – | – | – | – | ~6 | does not show growth inhibition | completely resistant | 9.36 | 120 | 5.73 | 41.8 | 24.5 | 4.13 | 22100 | 7.7
